Legend:
Assay type in all cases: ADME
[1] = molecular target: T1, {'v': 'CYP1A1', 'o': 'p', 'q': 'Inhibition of CYP1A1 (unknown origin)'} (Homo sapiens, UniProt P04798); assay: Inhibition of CYP1A1 (unknown origin) assessed as remaining enzyme activity relative to control
T1 sequence (P04798 whole entry): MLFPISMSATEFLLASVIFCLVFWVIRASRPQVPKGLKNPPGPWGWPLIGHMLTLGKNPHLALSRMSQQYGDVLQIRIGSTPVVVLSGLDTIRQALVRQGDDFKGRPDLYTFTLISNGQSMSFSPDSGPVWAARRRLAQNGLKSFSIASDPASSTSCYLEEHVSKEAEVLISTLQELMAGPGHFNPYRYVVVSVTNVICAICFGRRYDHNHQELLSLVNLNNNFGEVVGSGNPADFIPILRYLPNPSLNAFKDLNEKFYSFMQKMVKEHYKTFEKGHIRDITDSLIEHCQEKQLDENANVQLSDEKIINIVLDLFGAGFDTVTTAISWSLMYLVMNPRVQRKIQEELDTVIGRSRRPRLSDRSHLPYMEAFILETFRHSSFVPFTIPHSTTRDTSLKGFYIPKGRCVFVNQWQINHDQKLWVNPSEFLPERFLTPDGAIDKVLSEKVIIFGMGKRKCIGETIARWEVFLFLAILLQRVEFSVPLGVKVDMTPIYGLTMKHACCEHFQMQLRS

[2] = molecular target: T2, {'v': 'CYP1B1', 'o': 'p', 'q': 'Inhibition of CYP1B1 (unknown origin)'} (Homo sapiens, UniProt Q16678); assay: Inhibition of CYP1B1 (unknown origin) assessed as remaining enzyme activity relative to control
T2 sequence (Q16678 whole entry): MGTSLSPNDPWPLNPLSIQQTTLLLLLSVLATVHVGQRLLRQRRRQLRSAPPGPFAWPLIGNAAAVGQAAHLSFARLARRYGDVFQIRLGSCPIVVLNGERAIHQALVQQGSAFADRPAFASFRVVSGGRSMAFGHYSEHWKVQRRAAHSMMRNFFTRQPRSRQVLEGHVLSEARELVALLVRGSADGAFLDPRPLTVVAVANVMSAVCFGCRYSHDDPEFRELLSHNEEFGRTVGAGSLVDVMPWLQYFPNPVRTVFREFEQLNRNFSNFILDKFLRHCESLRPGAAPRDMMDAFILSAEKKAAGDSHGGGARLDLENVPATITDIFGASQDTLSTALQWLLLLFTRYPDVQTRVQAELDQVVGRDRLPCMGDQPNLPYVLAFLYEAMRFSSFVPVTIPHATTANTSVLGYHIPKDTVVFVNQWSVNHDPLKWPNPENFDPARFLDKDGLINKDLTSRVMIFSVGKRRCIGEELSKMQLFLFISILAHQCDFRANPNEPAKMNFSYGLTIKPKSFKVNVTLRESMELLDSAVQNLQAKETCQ

Cytochrome P450 1B1 = molecular target: T3, Cytochrome P450 1B1 (Homo sapiens, UniProt Q16678); assay: Inhibition of CYP1B1 (unknown origin)
T3 sequence (Q16678 whole entry): T2 sequence (Q16678 whole entry)

Cytochrome P450 1A1 = molecular target: T4, Cytochrome P450 1A1 (Homo sapiens, UniProt P04798); assay: Inhibition of CYP1A1 (unknown origin)
T4 sequence (P04798 whole entry): T1 sequence (P04798 whole entry)

activity [1] [%] | activity [2] [%] | IC50 (Cytochrome P450 1B1) [µM] | IC50 (Cytochrome P450 1A1) [µM] | Structure (SMILES)
21 | 9 | 0.051 | 3 | Brc1ccc(/N=N/Nc2ccc(Br)cc2)cc1
33 | 19 | 0.59 | 4 | CC(=O)c1ccc(/N=N/Nc2ccc(C(C)=O)cc2)cc1
96 | 8 | 0.74 |  | N#Cc1ccc(/N=N/Nc2ccc(C#N)cc2)cc1

Structure (SMILES) | activity [1] [%] | activity [2] [%] | IC50 (Cytochrome P450 1B1) [µM] | IC50 (Cytochrome P450 1A1) [µM]
c1ccc(N=NNc2ccccc2)cc1 | 9 | 4 | 2 | 8
